24 compounds from publication PMC5048153 (Scientific Reports, 2016) can be followed below.

Structures can show the parent of a compound that is named as a salt.

In test [1] the test system is corticosterone-injured PC12 cells. The test is described as follows: Protective effects on corticosterone-injured PC12 cells (MTT). It counts as cell-based, rat. Also on record: key to PR (protection rate), Table S1: compounds did not shown protection effects on corticosterone-injured PC12 cells. To be noted: 24 h after treatment; for PR (protection rate), Table S1: 1.25µM; for PR (protection rate): 200 μM corticosterone. How it is done: PC12 cells were purchased from American Type Culture Collection and were maintained in DMEM medium supplemented with penicillin (100 unit/ml), streptomycin (100 μg/ml), 5% fetal bovine serum (FBS), and 10% horse serum at 37 °C in humidified atmosphere with 5% CO2. The detailed procedures were performed referring to the reported literatures. Briefly, PC12 cells of logarithmic growth phase were collected, re-suspended and then seeded at a density of 1 × 10^5 cells per well in 96-well plates and cultured in the DMEM medium with 5% horse serum, 10% FBSfor 24 h.
After incubation with compounds, 20 μl of 5 mg/ml MTT solution was added to each well and cultured at 37 °C for 2 h–4 h. Then, the culture medium was removed, and 150 μl dimethyl sulfoxide(DMSO) was added to each well for 15 min at room temperature. The absorbance of each well was measured at 570 nm using a microplate reader. The protective rates (PR) were calculated according to equation (1).

Test [2] deals with HEK293 cells. The test is described as follows: Cytotoxicity on HEK293 cells (MTT). It counts as cell-based, human. To be noted: after treatment; for inhibition at 100 µM: Homo sapiens, HEK293, 100μM, read-out: IR (inhibitory rate) HEK293. How it is done:
(§1) Human normal hepatic L02 cells, human embryonic kidney cell line 293 cells (HEK293) and Rattus myoblast cell line H9C2 cells were respectively seeded in 96-well plates at a density of 4 × 10^3 cells per well and cultured in the 1640 or DMEM medium, with the supplement of 10% fetal bovine serum, penicillin (100 unit/ml), streptomycin (100 μg/ml) in a humidified incubator with 5% CO2 for 24 h. […] The cytotoxicities of the compounds were evaluated by MTT method.

Test [3] relates to L02 cells. The test is described as follows: Cytotoxicity on L02 cells (MTT). Type of test: cell-based, human. Particulars: after treatment; for inhibition at 100 µM: Homo sapiens, L02, 100μM, read-out: IR (inhibitory rate) L02. The method, then:
as §1

As to `COc1ccc2c(c1)C(CCNC(=O)Nc1ccc(F)c(Cl)c1)=NCC2.O=C(O)C(=O)O` [6b-14, 1-(3-Chloro-4-fluorophenyl)-3-(2-(7-methoxy-3,4-dihydroisoquinolin-1-yl)ethyl)urea oxalate], in test [1], the “PR (protection rate), Table S1” value is given as “-”. Moreover, the inhibition at 100 µM amounted to 22.8% in test [2] and 47.7% in test [3].

With `COc1ccc2c(c1)C(CCNC(=O)Nc1ccc(C#N)c(F)c1)=NCC2.O=C(O)C(=O)O` [6b-7, 1-(4-Cyano-3-fluorophenyl)-3-(2-(7-methoxy-3,4-dihydroisoquinolin-1-yl)ethyl)urea oxalate], the “PR (protection rate), Table S1” value in test [1] is on record as “-”. The inhibition at 100 µM in test [2] worked out at 27.2%; in test [3] it was 24.7%.

As to `COc1ccc2c(c1)C(CCNC(=O)Nc1ccccc1[N+](=O)[O-])=NCC2` [6b-19, 1-(2-(7-Methoxy-3,4-dihydroisoquinolin-1-yl)ethyl)-3-(2-nitrophenyl)ureaoxalate], the “PR (protection rate), Table S1” value in test [1] is recorded as “-”. The inhibition at 100 µM in test [2] stood at 33.5%; in test [3], 31.5%.

With `COc1ccc(C(=O)NCCC2=NCCc3ccc(OC)cc32)c(OC)c1` [6a-15, 2,4-Dimethoxy-N-(2-(7-methoxy-3,4-dihydroisoquinolin-1-yl)ethyl) benzamide oxalate], the “PR (protection rate), Table S1” value in test [1] is given as 3.7%. The inhibition at 100 µM was 56.1% in test [2] and 49.5% in test [3].

Turning to `COc1ccc2c(c1)C(CCNC(=O)Nc1cccc([N+](=O)[O-])c1)=NCC2.O=C(O)C(=O)O` [6b-15, 1-(2-(7-Methoxy-3,4-dihydroisoquinolin-1-yl)ethyl)-3-(3-nitrophenyl)urea oxalate], the “PR (protection rate), Table S1” value in test [1] is “-”. In addition, the inhibition at 100 µM turned out to be 47.5% in test [2] and 48.9% in test [3].

On to `COc1ccc2c(c1)C(CCNC(=O)c1ccccn1)=NCC2.O=C(O)C(=O)O` [6a-24, N-(2-(7-Methoxy-3,4-dihydroisoquinolin-1-yl)ethyl)picolinamide oxalate], for which the “PR (protection rate), Table S1” value in test [1] is on record as “-”. In addition, the inhibition at 100 µM in test [2] is 62.9%; in test [3] it was 55.8%.

In the case of `COc1ccc2c(c1)C(CCNC(=O)c1cc(Cl)ccc1Br)=NCC2.O=C(O)C(=O)O` [6a-27, 2-Bromo-5-chloro-N-(2-(7-methoxy-3,4-dihydroisoquinolin-1-yl)ethyl)benzamide oxalate], the “PR (protection rate), Table S1” value in test [1] is 10.1%. Moreover, the “PR (protection rate)” value in test [1] (1.25 μM) was “above 10%”. Also, the inhibition at 100 µM in test [2] was 51.8%; in test [3] it was 45.9%.

Turning to `COc1ccc2c(c1)C(CCNC(=O)Nc1ccc(Br)cn1)=NCC2.O=C(O)C(=O)O` [6b-12, 1-(5-Bromopyridin-2-yl)-3-(2-(7-methoxy-3,4-dihydroisoquinolin-1-yl)ethyl)urea oxalate], the “PR (protection rate), Table S1” value in test [1] came to 16.3%. The “PR (protection rate)” value in test [1] (1.25 μM) is listed as “above 10%”. Also, the results for the inhibition at 100 µM in test [2] and in test [3] were 49.4% and 48.1%, respectively.

`COc1ccc2c(c1)C(CCNC(=O)Nc1cc(Cl)c(Cl)c(Cl)c1)=NCC2.O=C(O)C(=O)O` [6b-5, 1-(2-(7-Methoxy-3,4-dihydroisoquinolin-1-yl)ethyl)-3-(3,4,5-trichlorophenyl)urea oxalate]: the “PR (protection rate), Table S1” value in test [1] is listed as “-”. The inhibition at 100 µM in test [2] is 40.1%; in test [3] it was 40.7%.

For the compound `COc1ccc2c(c1)C(CCNC(=O)c1cncc(Br)c1)=NCC2.O=C(O)C(=O)O` [6a-29, 5-Bromo-N-(2-(7-methoxy-3,4-dihydroisoquinolin-1-yl)ethyl)nicotinamide oxalate], the “PR (protection rate), Table S1” value in test [1] is “-”. Also, the inhibition at 100 µM stood at 29.5% in test [2] and 14.4% in test [3].

Regarding `COc1ccc2c(c1)C(CCNC(=O)Nc1ccc(C(F)(F)F)cc1)=NCC2.O=C(O)C(=O)O` [6b-3, 1-(2-(7-Methoxy-3,4-dihydroisoquinolin-1-yl)ethyl)-3-(4-(trifluoromethyl)phenyl)urea oxalate], the “PR (protection rate), Table S1” value in test [1] is 10.7%. In test [1] (1.25 μM), the “PR (protection rate)” value is recorded as “above 10%”. For the same compound, the values for the inhibition at 100 µM in test [2] and in test [3] were 23.2% and 35.8%, respectively.

Consider “4-Fluoro-N-(2-(7-methoxy-3,4-dihydroisoquinolin-1-yl)ethyl)benzamide oxalate [6a-33]”, for which the “PR (protection rate), Table S1” value in test [1] is reported as “-”. Moreover, in test [2] (100μM), the “IR (inhibitory rate) HEK293” value came to 43.0%. In test [3] (100μM), the “IR (inhibitory rate) L02” value was determined as 45.2%.

Take `COc1ccc2c(c1)C(CCNC(=O)c1ccco1)=NCC2` [6a-9, N-(2-(7-Methoxy-3,4-dihydroisoquinolin-1-yl)ethyl) furan-2-carboxamideoxalate]: the “PR (protection rate)” value is 7.9% in test [1] (5 μM) and 14.9% in test [1] ([…]). Moreover, the inhibition at 100 µM in test [2] was 60.1%; in test [3], 52.6%.

As for `COc1ccc2c(c1)C(CCNC(=O)Nc1ccccc1C(F)(F)F)=NCC2.O=C(O)C(=O)O` [6b-4, 1-(2-(7-Methoxy-3,4-dihydroisoquinolin-1-yl)ethyl)-3-(2-(trifluoromethyl)phenyl)urea oxalate], the “PR (protection rate), Table S1” value in test [1] was found to be 11.9%. Further, the “PR (protection rate)” value in test [1] (1.25 μM) is listed as “above 10%”. The values for the inhibition at 100 µM in test [2] and in test [3] were 29.2% and 57.7%, respectively.

For the compound `COc1ccc2c(c1)C(CCNC(=O)c1cc(Br)cnc1Cl)=NCC2.O=C(O)C(=O)O` [6a-30, 5-Bromo-2-chloro-N-(2-(7-methoxy-3,4-dihydroisoquinolin-1-yl)ethyl)nicotinamide oxalate], in test [1], the “PR (protection rate), Table S1” value is given as “-”. Besides, the inhibition at 100 µM in test [2] was 49.1%; in test [3], 47.5%.

Regarding `COc1ccc2c(c1)C(CCNC(=O)Nc1cccc(Cl)c1)=NCC2.O=C(O)C(=O)O` [6b-2, 1-(3-Chlorophenyl)-3-(2-(7-methoxy-3,4-dihydroisoquinolin-1-yl)ethyl)urea oxalate], the “PR (protection rate), Table S1” value in test [1] is reported as “-”. Besides, the inhibition at 100 µM is 37.9% in test [2] and 38.9% in test [3].

Regarding `COc1ccc2c(c1)C(CCNC(=O)c1ccccc1Cl)=NCC2` [6a-7, 2-Chloro-N-(2-(7-methoxy-3,4-dihydroisoquinolin-1-yl)ethyl) benzamide oxalate], in test [1], the “PR (protection rate), Table S1” value is “-”. Further, the inhibition at 100 µM in test [2] amounted to 27.4%; in test [3], 23.5%.

With `COc1ccc2c(c1)C(CCNC(=O)Cc1cc3ccccc3[nH]1)=NCC2.O=C(O)C(=O)O` [6a-17, 2-(1H-Indol-2-yl)-N-(2-(7-methoxy-3,4-dihydroisoquinolin-1-yl)ethyl)acetamide oxalate], the “PR (protection rate), Table S1” value in test [1] is listed as “-”. The inhibition at 100 µM in test [2] worked out at 55.8%; in test [3], 42.2%.

Take `COc1ccc2c(c1)C(CCNC(=O)c1ccc3ccccc3n1)=NCC2.O=C(O)C(=O)O` [6a-26, N-(2-(7-Methoxy-3,4-dihydroisoquinolin-1-yl)ethyl)quinoline-2-carboxamide oxalate]: the “PR (protection rate), Table S1” value in test [1] was “-”. Moreover, the results for the inhibition at 100 µM in test [2] and in test [3] were 48.6% and 42.7%, respectively.

On to `COc1ccc2c(c1)C(CCNC(=O)C(F)(F)F)=NCC2` [6a-3, 2,2,2-Trifluoro-N-(2-(7-methoxy-3,4-dihydroisoquinolin-1-yl)ethyl) acetamideoxalate], for which the “PR (protection rate), Table S1” value in test [1] is “-^b”. Also, the inhibition at 100 µM came to 60.1% in test [2] and 59.6% in test [3].

For the compound `COc1ccc2c(c1)C(CCNC(=O)c1ccc(C(C)(C)C)cc1)=NCC2.O=C(O)C(=O)O` [6a-18, 4-(tert-Butyl)-N-(2-(7-methoxy-3,4-dihydroisoquinolin-1-yl)ethyl)benzamide oxalate], the “PR (protection rate), Table S1” value in test [1] is “-”. The results for the inhibition at 100 µM in test [2] and in test [3] were 53.3% and 63.2%, respectively.

For `COc1ccc2c(c1)C(CCNC(=O)c1ccc(F)cc1)=NCC2` [6a-12, 4-Fluoro-N-(2-(7-methoxy-3,4-dihydroisoquinolin-1-yl)ethyl) benzamide oxalate], the “PR (protection rate), Table S1” value in test [1] is listed as 0.7%. In addition, the inhibition at 100 µM worked out at 43.8% in test [2] and 19.1% in test [3].

With `COc1ccc2c(c1)C(CCNC(=O)c1ccc(C#N)cc1)=NCC2.O=C(O)C(=O)O` [6a-19, 4-Cyano-N-(2-(7-methoxy-3,4-dihydroisoquinolin-1-yl)ethyl)benzamide oxalate], in test [1], the “PR (protection rate), Table S1” value is listed as “-”. The values for the inhibition at 100 µM in test [2] and in test [3] were 55.9% and 45%, respectively.

For the compound `COc1ccc2c(c1)C(CCNC(=O)c1ccc(Cl)cc1)=NCC2` [6a-5, 4-Chloro-N-(2-(7-methoxy-3,4-dihydroisoquinolin-1-yl)ethyl) benzamideoxalate], the “PR (protection rate), Table S1” value in test [1] came to 4.1%. For the same compound, the inhibition at 100 µM worked out at 60% in test [2] and 67% in test [3].
